According to patent US10584115B2, “Substituted pyridine and pyrazine BMI-1 inhibitors” (PTC Therapeutics, Inc., priority 2013, dated 2020):

test system: Bmi-1 protein; assay: Sandwich ELISA Assay (Bmi-1 protein level in HT-1080 cells after compound treatment); type: cell-based; settings: Table 1, Bmi-1 sandwich ELISA, read-out: ELISA EC50 value for Bmi-1 protein
Outline: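 HT-1080 cells exposed to compounds for 40–48 h at 37 °C (0.5% DMSO final), then lysed. Bmi-1 in lysates measured by sandwich ELISA (mouse monoclonal capture, rabbit anti-Bmi-1 detection, HRP anti-rabbit, TMB), read at OD450 with OD570 reference against a recombinant Bmi-1 standard curve (0–8000 pg/mL).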

SMILES	EC50 [nM]
Fc1ccc2nc(C(F)(F)F)c(-c3cccc(Nc4ccc(C(F)(F)F)cc4)n3)n2c1 [compound 411, 6-[6-fluoro-2-(trifluoromethyl)imidazo[1,2-a]pyridin-3-yl]-N-[4-(trifluoromethyl)phenyl]pyridin-2-amine]	10 to 100
Cc1nn(C)c(Cl)c1-c1cncc(Nc2ccc(C(F)(F)F)cc2)n1 [compound 412, 6-(5-chloro-1,3-dimethyl-1H-pyrazol-4-yl)-N-[4-(trifluoromethyl)phenyl]pyrazin-2-amine]	1 to 10
Cc1nn(C)c(Cl)c1-c1cncc(Nc2ccc(OC(F)F)cc2)n1 [compound 413, 6-(5-chloro-1,3-dimethyl-1H-pyrazol-4-yl)-N-[4-(difluoromethoxy)phenyl]pyrazin-2-amine]	1 to 10
Cc1nn(C)c(Cl)c1-c1cncc(Nc2ccc(OC(F)(F)F)cc2)n1 [compound 414, 6-(5-chloro-1,3-dimethyl-1H-pyrazol-4-yl)-N-[4-(trifluoromethoxy)phenyl]pyrazin-2-amine]	10 to 100
Cc1nn(C)c(Cl)c1-c1cncc(Nc2ccc(OC(F)F)c(F)c2)n1 [compound 415, 6-(5-chloro-1,3-dimethyl-1H-pyrazol-4-yl)-N-[4-(difluoromethoxy)-3-fluorophenyl]pyrazin-2-amine]	10 to 100
Cn1nc2ccc(F)cc2c1-c1cncc(Nc2ccc(C(F)(F)F)cc2)n1 [compound 416, 6-(5-fluoro-2-methyl-2H-indazol-3-yl)-N-[4-(trifluoromethyl)phenyl]pyrazin-2-amine]	10 to 100
Cc1nc2c(F)cc(F)cc2n1-c1cncc(Nc2ccc(C(F)(F)F)cc2)n1 [compound 417, 6-(4,6-difluoro-2-methyl-1H-benzimidazol-1-yl)-N-[4-(trifluoromethyl)phenyl]pyrazin-2-amine]	10 to 100
ONc1cc(Nc2ccc(C(F)(F)F)cc2)nc(-c2c(C(F)(F)F)nc3ccc(F)cn23)c1 [compound 418, 6-[6-fluoro-2-(trifluoromethyl)imidazo[1,2-a]pyridin-3-yl]-N^4-hydroxy-N^2-[4-(trifluoromethyl)phenyl]pyridine-2,4-diamine]	10 to 100
Cc1nc2ncc(Cl)cc2n1-c1cc(C#N)cc(Nc2ccc(C(F)(F)F)cc2)n1 [compound 419, 2-(6-chloro-2-methyl-1H-imidazo[4,5-b]pyridin-1-yl)-6-{[4-(trifluoromethyl)phenyl]amino}pyridine-4-carbonitrile]	1 to 10
Cc1nc2ccccc2n1-c1cncc(Nc2nc3ccccc3s2)n1 [compound 420, N-[6-(2-methyl-1H-benzimidazol-1-yl)pyrazin-2-yl]-1,3-benzothiazol-2-amine]	1 to 10
FC(F)(F)c1ccc(Nc2cncc(-c3c(C4CC4)nc4ncccn34)n2)cc1 [compound 422, 6-(2-cyclopropylimidazo[1,2-a]pyrimidin-3-yl)-N-[4-(trifluoromethyl)phenyl]pyrazin-2-amine]	10 to 100
Cc1nc2cc(F)c(F)cc2n1-c1cncc(Nc2ccc(N3CCOCC3)nc2)n1 [compound 423, 6-(5,6-difluoro-2-methyl-1H-benzimidazol-1-yl)-N-[6-(morpholin-4-yl)pyridin-3-yl]pyrazin-2-amine]	10 to 100
Cc1nc2ccccc2n1-c1cncc(NC2Cc3ccccc3C2)n1 [compound 424, N-(2,3-dihydro-1H-inden-2-yl)-6-(2-methyl-1H-benzimidazol-1-yl)pyrazin-2-amine]	100 to 3000
Cc1nc2cc(F)c(F)cc2n1-c1cncc(Nc2ccc(NCCO)nc2)n1 [compound 425, 2-[(5-{[6-(5,6-difluoro-2-methyl-1H-benzimidazol-1-yl)pyrazin-2-yl]amino}pyridin-2-yl)amino]ethanol]	10 to 100
Cc1nc2cc(F)ccc2n1-c1cncc(Nc2ccc(Cl)nc2)n1 [compound 426, N-(6-chloropyridin-3-yl)-6-(5-fluoro-2-methyl-1H-benzimidazol-1-yl)pyrazin-2-amine]	100 to 3000
Cc1nc2ccc(F)cc2n1-c1cncc(Nc2ccc(Cl)nc2)n1 [compound 427, N-(6-chloropyridin-3-yl)-6-(6-fluoro-2-methyl-1H-benzimidazol-1-yl)pyrazin-2-amine]	10 to 100
Cc1nc2ncc(Cl)cc2n1-c1cc(C#N)cc(Nc2ccc(OC(F)F)cc2)n1 [compound 428, 2-(6-chloro-2-methyl-1H-imidazo[4,5-b]pyridin-1-yl)-6-{[4-(difluoromethoxy)phenyl]amino}pyridine-4-carbonitrile]	1 to 10
Cc1nc2ncc(Cl)cc2n1-c1cc(C#N)cc(Nc2ccc(OC(F)F)c(F)c2)n1 [compound 429, 2-(6-chloro-2-methyl-1H-imidazo[4,5-b]pyridin-1-yl)-6-{[4-(difluoromethoxy)-3-fluorophenyl]amino}pyridine-4-carbonitrile]	1 to 10
Cc1nc2cc(F)c(F)cc2n1-c1cncc(Nc2ccc(NCCN(C)C)nc2)n1 [compound 430, N^5-[6-(5,6-difluoro-2-methyl-1H-benzimidazol-1-yl)pyrazin-2-yl]-N^2-[2-(dimethylamino)ethyl]pyridine-2,5-diamine]	100 to 3000
Cc1nc2cc(F)ccc2n1-c1cncc(Nc2ccc(C(F)(F)F)nc2)n1 [compound 431, 6-(5-fluoro-2-methyl-1H-benzimidazol-1-yl)-N-[6-(trifluoromethyl)pyridin-3-yl]pyrazin-2-amine]	10 to 100
Cc1nc2ccc(F)cc2n1-c1cncc(Nc2ccc(C(F)(F)F)nc2)n1 [compound 432, 6-(6-fluoro-2-methyl-1H-benzimidazol-1-yl)-N-[6-(trifluoromethyl)pyridin-3-yl]pyrazin-2-amine]	10 to 100
Cc1nc2ccccc2n1-c1cncc(Nc2ccc(B3OC(C)(C)C(C)(C)O3)cc2)n1 [compound 433, 6-(2-methyl-1H-benzimidazol-1-yl)-N-[4-(4,4,5,5-tetramethyl-1,3,2-dioxaborolan-2-yl)phenyl]pyrazin-2-amine]	100 to 3000
Cc1nc2ccccc2n1-c1cncc(Nc2ccc(B(O)O)cc2)n1 [compound 434, (4-{[6-(2-methyl-1H-benzimidazol-1-yl)pyrazin-2-yl]amino}phenyl)boronic acid]	10 to 100
Cc1nc2ncc(F)cn2c1-c1cc(C#N)cc(Nc2ccc(OC(F)(F)F)cc2)n1 [compound 438, 2-(6-fluoro-2-methylimidazo[1,2-a]pyrimidin-3-yl)-6-{[4-(trifluoromethoxy)phenyl]amino}pyridine-4-carbonitrile]	10 to 100
Cc1nc2ccccc2n1-c1cncc(Nc2nc3ccc(C(F)(F)F)cc3s2)n1 [compound 440, N-[6-(2-methyl-1H-benzimidazol-1-yl)pyrazin-2-yl]-6-(trifluoromethyl)-1,3-benzothiazol-2-amine]	100 to 3000
N#Cc1cc(Nc2ccc(C(F)(F)F)nc2)nc(-c2c(CO)nc3ccc(F)cn23)c1 [compound 445, 2-[6-fluoro-2-(hydroxymethyl)imidazo[1,2-a]pyridin-3-yl]-6-{[6-(trifluoromethyl)pyridin-3-yl]amino}pyridine-4-carbonitrile]	10 to 100
N#Cc1cc(Nc2ccc(Cl)nc2)nc(-c2c(CO)nc3ccc(F)cn23)c1 [compound 446, 2-[(6-chloropyridin-3-yl)amino]-6-[6-fluoro-2-(hydroxymethyl)imidazo[1,2-a]pyridin-3-yl]pyridine-4-carbonitrile]	100 to 3000
